Patent publication US10513694B2, “Thienopyrrole compounds and uses thereof” (PROMEGA CORPORATION, priority 2015, dated 2019)
Entries after “also recorded” stand apart in the source; their conditions may differ.

Key:
[1] = tested on: firefly luciferase, e.g., ULTRAGLO® luciferase; assay: Specificity of inhibition: firefly luciferase activity; format: biochemical; conditions: 1 μM luciferin in Luciferase Detection Reagent; RT 2 hrs
Method in brief: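 Counter-screen against firefly (ULTRAGLO®) luciferase: 1 μM luciferin in detection reagent mixed with equal volume of compound titrations. After 2 hrs at RT, luminescence read.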

[2] = target: T1, purified Nluc (extracellular); Nluc-HALOTAG fusion protein (intracellular) (Oplophorus gracilirostris, UniProt Q9GV45, A31E/A60N/A81I/F95D/I117V/K70R/L54V/L99Q/M102K/N193R/P142E/Q151K/Q38R/Q45L/V71I/Y165I); assay: Inhibition of extracellular luciferase activity and enhancement of intracellular BRET; format: cell-based; conditions: HEK293 Nluc-HALOTAG + NANOBRET 618; 10 ng/mL extracellular purified Nluc; 2 hrs
T1 construct: expressed in transfected cells; host or cells: HEK293 (Nluc-HaloTag); purified Nluc added from outside
T1 sequence (Q9GV45 28-196 with tags or gaps with the stated changes limits assumed): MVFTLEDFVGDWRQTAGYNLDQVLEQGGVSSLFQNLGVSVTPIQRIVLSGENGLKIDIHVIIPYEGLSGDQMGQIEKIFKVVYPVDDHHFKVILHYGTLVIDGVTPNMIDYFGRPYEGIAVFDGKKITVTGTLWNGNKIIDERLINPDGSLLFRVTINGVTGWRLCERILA
Method: HEK293 were transiently transfected with Nluc-HALOTAG fusion protein to orient Nluc-HALOTAG inside the cell. 24 hrs post-transfection, cells were labeled with NANOBRET 618 ligand to simulate specific intracellular BRET. Cells were then treated 10 ng/mL purified Nluc to simulate spurious extracellular luminescence. Cells were exposed to a compound response curve of the thienopyrrole compounds, JRW-0013, JRW-0051, JRW-0147, and JRW-0187, for 2 hrs. 10 μM furimazine was added, and the BRET ratio 610/450 nm was measured.

Nluc = Nluc (Oplophorus gracilirostris, UniProt Q9GV45, A31E/A60N/A81I/F95D/I117V/K70R/L54V/L99Q/M102K/N193R/P142E/Q151K/Q38R/Q45L/V71I/Y165I); assay: Multiplex RealTime-Glo / Caspase-Glo 3/7 in A549 cells; format: cell-based; set-up: purchased Promega Corporation; conditions: final, 1 hr
Sequence of Nluc (Q9GV45 28-196 with tags or gaps with the stated changes limits assumed): as above
Method: B) A549 cells were plated at 1,000 cells/well in 20 μL F12K media into wells of a Corning 3570 plate (n-4) and incubated overnight. Then, REALTIME-GLO™ MT Cell Viability assay reagents (Promega Corporation) were added to the wells as a 2× solution in 20 μL media. The reaction was incubated for 1 hr. 40 μL of a titration of JRW-0013 or JRW-0147 in CASPASE-GLO® 3/7 assay reagent (Promega Corporation) at 2× concentrations was added. The reactions were incubated at RT, and luminescence was determined at 1 hr.

[3] = tested on: Nluc-HALOTAG labeled with NANOBRET 618 ligand; assay: Inhibition of extracellular BRET; format: cell-based; conditions: HEK293 Nluc-HDAC6; 10 ng/mL extracellular Nluc-HALOTAG/NANOBRET 618; 2 hrs
Method: HEK293 were transiently transfected with an Nluc-HDAC6 fusion protein to orient Nluc-HDAC6 inside the cell. 24 hrs post-transfection, cells were treated 10 ng/mL purified Nluc-HALOTAG labeled with NANOBRET 618 ligand to simulate spurious extracellular BRET. Cells were then exposed to a compound response curve of the thienopyrrole compounds, JRW-0013, JRW-0051, JRW-0147, and JRW-0187, for 2 hrs. 10 μM furimazine was then added, and BRET ratio 610/450 nm was measured.

Nluc luciferase = Nluc luciferase (Oplophorus gracilirostris, UniProt Q9GV45, A31E/A60N/A81I/F95D/I117V/K70R/L54V/L99Q/M102K/N193R/P142E/Q151K/Q38R/Q45L/V71I/Y165I); format: cell-based; set-up: expressed in transfected cells; host or cells: HEK293; conditions: HEK293; 10, 30 or 120 minutes
Sequence of Nluc luciferase (Q9GV45 28-196 with tags or gaps with the stated changes limits assumed): as above
Method: HEK293 cells were transiently transfected with Nluc luciferase to express it cytosolically. Twenty-four hours post-transfection, cells were exposed to a compound response curve of the thienopyrrole compound JRW-0147 or JRW-0013 for 10 minutes, 30 minutes, or 120 minutes. 10 μM furimazine was then added, and luminescence was measured.

UltraGlo luciferase = assay: Specificity of inhibition of Nluc luciferase: UltraGlo luciferase; format: biochemical, firefly; conditions: RT 2 hrs
Method: The following example describes the specificity of disclosed thienopyrrole compounds, JRW-0251, JRW-0344, and JRW-0147, to inhibit Nluc luciferase activity versus firefly luciferase activity, e.g., ULTRAGLO® luciferase. In a Corning 3570 assay plate, a solution containing 1 μM luciferin in Luciferase Detection Reagent (Promega Corporation V865/859) was added to the assay wells. An equal volume of titrations the thienopyrrole compounds, JRW-0251, JRW-0344, and JRW-0147 were then added to the wells. The reactions were incubated at RT for 2 hrs, and luminescence was measured on Tecan M1000 Pro plate reader.

In the case of `CCN(C(=O)Cn1c(C(=O)N[C@H]2CC[C@H](C(=O)OC)CC2)cc2sccc21)c1cccc(C)c1` [JRW-0013, trans-methyl-4-(4-(2-(ethyl(m-tolyl)amino)-2-oxoethyl)-4H-thieno[3,2-b]pyrrole-5-carboxamido)cyclohexane-1-carboxylate], the “Inhibition of firefly luciferase activity (FIG. 3)” value [1] is reported as “do not inhibit firefly luciferase activity; also recorded: did not inhibit the firefly luciferase activity”, the “BRET ratio 610/450 nm across compound dose-response curve (FIGS. 13B-13E)” value [2] is reported as “BRET ratio remained constant” and the “Caspase, Avg (luminescence)” value (Nluc; Inhibitor 1.73 μM) is reported as 12879. The “Caspase, Avg (luminescence)” value (Nluc; Inhibitor 2.60 μM) was 11813, the “Caspase, Avg (luminescence)” value (Nluc; Inhibitor 3.90 μM) was 9148 and the “Caspase, Avg (luminescence)” value (Nluc; Inhibitor 5.85 μM) was 8059. For the same molecule, the “Caspase, Avg (luminescence)” value (Nluc; Inhibitor 8.78 μM) was 6703, the “Caspase, Avg (luminescence)” value (Nluc; Inhibitor 13.17 μM) was 6014 and the “Caspase, Avg (luminescence)” value (Nluc; Inhibitor 19.75 μM) was 5095. The “Caspase, Avg (luminescence)” value (Nluc; Inhibitor 29.63 μM) was 5132, the “Caspase, Avg (luminescence)” value (Nluc; Inhibitor 44.44 μM) was 4419 and the “Caspase, Avg (luminescence)” value (Nluc; Inhibitor 66.67 μM) was 4017. The “Caspase, Avg (luminescence)” value (Nluc; Inhibitor 100 μM) was 3619, the “BRET ratio 610/450 nm across compound dose-response curve (FIGS. 12B-12E)” value [3] was “BRET ratio remained constant” and the “Change in RLUs from cytosolic Nluc (FIG. 16)” value (Nluc luciferase) was “decrease the RLUs from Nluc in a dose-dependent manner independent of time”.

In the case of `CCN(C(=O)Cn1c(C(=O)N[C@H]2CC[C@H](C(=O)NCCCCCC(=O)O)CC2)cc2sccc21)c1cccc(C)c1` [JRW-0147, 6-(trans-4-(4-(2-(ethyl(m-tolyl)amino)-2-oxoethyl)-4H-thieno[3,2-b]pyrrole-5-carboxamido)cyclohexane-1-carboxamido)hexanoic acid], the “Inhibition of firefly luciferase activity (FIG. 3)” value [1] is reported as “do not inhibit firefly luciferase activity; also recorded: did not inhibit the firefly luciferase activity”, the “BRET ratio 610/450 nm across compound dose-response curve (FIGS. 13B-13E)” value [2] is reported as “intracellular BRET ratio was enhanced” and the “Caspase, Avg (luminescence)” value (Nluc; Inhibitor 1.73 μM) is reported as 15580. The “Caspase, Avg (luminescence)” value (Nluc; Inhibitor 2.60 μM) was 11677, the “Caspase, Avg (luminescence)” value (Nluc; Inhibitor 3.90 μM) was 9790 and the “Caspase, Avg (luminescence)” value (Nluc; Inhibitor 5.85 μM) was 8013. For the same molecule, the “Caspase, Avg (luminescence)” value (Nluc; Inhibitor 8.78 μM) was 7125, the “Caspase, Avg (luminescence)” value (Nluc; Inhibitor 13.17 μM) was 5545 and the “Caspase, Avg (luminescence)” value (Nluc; Inhibitor 19.75 μM) was 5302. The “Caspase, Avg (luminescence)” value (Nluc; Inhibitor 29.63 μM) was 4394, the “Caspase, Avg (luminescence)” value (Nluc; Inhibitor 44.44 μM) was 4367 and the “Caspase, Avg (luminescence)” value (Nluc; Inhibitor 66.67 μM) was 3427. The “Caspase, Avg (luminescence)” value (Nluc; Inhibitor 100 μM) was 3389, the “Inhibition of firefly luciferase activity (Table 3)” value (UltraGlo luciferase) was “did not inhibit the firefly luciferase activity” and the “UltraGlo luciferase, Avg (luminescence)” value (UltraGlo luciferase; [cmpd] 0.1953125 μM) was 85561. The “UltraGlo luciferase, S/B” value (UltraGlo luciferase; [cmpd] 0.1953125 μM) was 0.99, the “UltraGlo luciferase, Avg (luminescence)” value (UltraGlo luciferase; [cmpd] 0.390625 μM) was 84087 and the “UltraGlo luciferase, S/B” value (UltraGlo luciferase; [cmpd] 0.390625 μM) was 0.97. The “UltraGlo luciferase, Avg (luminescence)” value (UltraGlo luciferase; [cmpd] 0.78125 μM) was 84072, the “UltraGlo luciferase, S/B” value (UltraGlo luciferase; [cmpd] 0.78125 μM) was 0.97 and the “UltraGlo luciferase, Avg (luminescence)” value (UltraGlo luciferase; [cmpd] 1.5625 μM) was 83668. For the same molecule, the “UltraGlo luciferase, S/B” value (UltraGlo luciferase; [cmpd] 1.5625 μM) was 0.97, the “UltraGlo luciferase, Avg (luminescence)” value (UltraGlo luciferase; [cmpd] 3.125 μM) was 82252 and the “UltraGlo luciferase, S/B” value (UltraGlo luciferase; [cmpd] 3.125 μM) was 0.95. For the same molecule, the “UltraGlo luciferase, Avg (luminescence)” value (UltraGlo luciferase; [cmpd] 6.25 μM) was 83282, the “UltraGlo luciferase, S/B” value (UltraGlo luciferase; [cmpd] 6.25 μM) was 0.97 and the “UltraGlo luciferase, Avg (luminescence)” value (UltraGlo luciferase; [cmpd] 12.5 μM) was 83291. The “UltraGlo luciferase, S/B” value (UltraGlo luciferase; [cmpd] 12.5 μM) was 0.97, the “UltraGlo luciferase, Avg (luminescence)” value (UltraGlo luciferase; [cmpd] 25 μM) was 84033 and the “UltraGlo luciferase, S/B” value (UltraGlo luciferase; [cmpd] 25 μM) was 0.97. The “UltraGlo luciferase, Avg (luminescence)” value (UltraGlo luciferase; [cmpd] 50 μM) was 81106, the “UltraGlo luciferase, S/B” value (UltraGlo luciferase; [cmpd] 50 μM) was 0.94 and the “UltraGlo luciferase, Avg (luminescence)” value (UltraGlo luciferase; [cmpd] 100 μM) was 80636. The “UltraGlo luciferase, S/B” value (UltraGlo luciferase; [cmpd] 100 μM) was 0.93, the “UltraGlo luciferase, Avg (luminescence)” value (UltraGlo luciferase; [cmpd] 200 μM) was 78035 and the “UltraGlo luciferase, S/B” value (UltraGlo luciferase; [cmpd] 200 μM) was 0.90. The “BRET ratio 610/450 nm across compound dose-response curve (FIGS. 12B-12E)” value [3] was “BRET ratio decreased” and the “Change in RLUs from cytosolic Nluc (FIG. 16)” value (Nluc luciferase) was “no significant change in RLUs from Nluc”.

`CCN(C(=O)Cn1c(C(=O)N[C@H]2CC[C@H](C(=O)NCCCCCCS(=O)(=O)[O-])CC2)cc2sccc21)c1cccc(C)c1.[Na+]` [JRW-0344, Sodium 6-(trans-4-(4-(2-(ethyl(m-tolyl)amino)-2-oxoethyl)-4H-thieno[3,2-b]pyrrole-5-carboxamido)cyclohexane-1-carboxamido)hexane-1-sulfonate] was tested, and the “Inhibition of firefly luciferase activity (Table 3)” value (UltraGlo luciferase) was “did not inhibit the firefly luciferase activity”, the “UltraGlo luciferase, Avg (luminescence)” value (UltraGlo luciferase; [cmpd] 0.1953125 μM) was 83526.33 and the “UltraGlo luciferase, S/B” value (UltraGlo luciferase; [cmpd] 0.1953125 μM) was 1.00. The “UltraGlo luciferase, Avg (luminescence)” value (UltraGlo luciferase; [cmpd] 0.390625 μM) was 82945.67, the “UltraGlo luciferase, S/B” value (UltraGlo luciferase; [cmpd] 0.390625 μM) was 1.00 and the “UltraGlo luciferase, Avg (luminescence)” value (UltraGlo luciferase; [cmpd] 0.78125 μM) was 82135.67. The “UltraGlo luciferase, S/B” value (UltraGlo luciferase; [cmpd] 0.78125 μM) was 0.99, the “UltraGlo luciferase, Avg (luminescence)” value (UltraGlo luciferase; [cmpd] 1.5625 μM) was 81368.33 and the “UltraGlo luciferase, S/B” value (UltraGlo luciferase; [cmpd] 1.5625 μM) was 0.98. For the same molecule, the “UltraGlo luciferase, Avg (luminescence)” value (UltraGlo luciferase; [cmpd] 3.125 μM) was 80134.33, the “UltraGlo luciferase, S/B” value (UltraGlo luciferase; [cmpd] 3.125 μM) was 0.96 and the “UltraGlo luciferase, Avg (luminescence)” value (UltraGlo luciferase; [cmpd] 6.25 μM) was 83064.33. For the same molecule, the “UltraGlo luciferase, S/B” value (UltraGlo luciferase; [cmpd] 6.25 μM) was 1.00, the “UltraGlo luciferase, Avg (luminescence)” value (UltraGlo luciferase; [cmpd] 12.5 μM) was 82454.67 and the “UltraGlo luciferase, S/B” value (UltraGlo luciferase; [cmpd] 12.5 μM) was 0.99. The “UltraGlo luciferase, Avg (luminescence)” value (UltraGlo luciferase; [cmpd] 25 μM) was 83084.00, the “UltraGlo luciferase, S/B” value (UltraGlo luciferase; [cmpd] 25 μM) was 1.00 and the “UltraGlo luciferase, Avg (luminescence)” value (UltraGlo luciferase; [cmpd] 50 μM) was 81805.00. The “UltraGlo luciferase, S/B” value (UltraGlo luciferase; [cmpd] 50 μM) was 0.98, the “UltraGlo luciferase, Avg (luminescence)” value (UltraGlo luciferase; [cmpd] 100 μM) was 79847.67 and the “UltraGlo luciferase, S/B” value (UltraGlo luciferase; [cmpd] 100 μM) was 0.96. The “UltraGlo luciferase, Avg (luminescence)” value (UltraGlo luciferase; [cmpd] 200 μM) was 77230.33 and the “UltraGlo luciferase, S/B” value (UltraGlo luciferase; [cmpd] 200 μM) was 0.93.
